Values after ≈ are worked out from the molar mass of the structure shown. “Also recorded” adds a separate entry of the source. Where a SMILES comes first, the peptide text is derived from it.
Tests used:
E. coli ATCC 25922 = assay type: cell-based, Escherichia coli; details: for MIC (ug/mL) E. coli: Table 14, first value of the cell, three independent experiments, highest concentration tested 128
Procedure, shortened: (§1)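 CLSI broth microdilution adapted for cationic peptides, in Mueller-Hinton broth, inoculum 2-8×10^5 cfu/mL. Peptides serially diluted from 128 to 0.5 μg/mL in polypropylene plates, incubated 20-24 h at 37° C. MIC = lowest concentration without visible growth.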

[1] = test system: Salmonella enterica serovar Enteritidis (human clinical isolate); assay type: cell-based; details: for MIC (ug/mL) S. Enteritidis: Table 14, second value of the cell, three independent experiments, highest concentration tested 128
Procedure, shortened: as §1

S. aureus ATCC 29213 = assay type: cell-based, Staphylococcus aureus; details: Table 14, third value of the cell; three independent experiments; highest concentration tested 128
Procedure, shortened: as §1

[2] = alamarBlue cell viability assay (cytotoxicity); assay type: cell-based, human; details: human, HEK293 cells, at 128 μg/mL
Method: (§2) The human embryonic kidney cell line HEK293 and the corresponding growth media and supplements were purchased from the ATCC. The cells were maintained in Eagle's Minimum Essential Medium (EMEM) supplemented with 10% fetal bovine serum (FBS) and 1% Penicillin-Streptomycin solution and grown in a 5% CO2 incubator at 37° C. […] Cells were incubated overnight to allow them to adhere. […] TX-100 was diluted to 2% in UltraPure deionized water and added as a positive control. Complete growth medium was added to the peptides and TX-100 containing wells. Spent growth medium of wells with adhered cells was replaced with the contents of wells containing serially diluted peptides or TX-100. Cells were incubated for four hours at 37° C. in 5% CO2 incubator. Growth medium containing peptides or TX-100 was replaced with fresh growth medium containing 10% (v/v) alamarBlue (Bio-Rad Laboratories, Hercules, CA, USA) and incubated for 20 h. Fluorescence was measured at excitation of 540 nm and emission of 590 nm in a Cytation 5 plate reader (Agilent BioTek, Winooski, VT, USA) and results recorded and analyzed with Gen5 software (Agilent BioTek, Winooski, VT, USA). The average fluorescence reads of TX-100 and growth media only wells were used to calculate 0% and 100% cell viability, respectively. The percentage of viable cells at each peptide concentration was determined by Formula 1: […]

HEK293 cells = assay: alamarBlue cell viability assay (cytotoxicity); assay type: cell-based, human; details: concentrations up to 128 μg/mL
Method: as §2

[3] = test system: Staphylococcus aureus ATCC 29213; assay type: cell-based; details: Table 3; wild-type Staphylococcus aureus ATCC 29213; minimum of three independent experiments
Method: Twenty-one putative AMP sequences identified using the rAMPage pipeline were validated through a minimum of three AST experiments performed independently on separate days. In these tests, the AMP activity was assessed using two metrics: minimum inhibitory concentration and minimum bactericidal concentration (MIC and MBC, respectively). MIC and MBC values were determined using procedures outlined by the Clinical and Laboratory Standards Institute (CLSI), with the recommended adaptations for the testing of cationic AMPs described previously. “Wild-type” strains of Escherichia coli (E. coli 25922) and Staphylococcus aureus (S. aureus 29213) were purchased from the American Type Culture Collection (ATCC; Manassas, VA, USA) and were used for screening of antimicrobial activity. Briefly, putative AMPs were synthesized by Genscript (Piscataway, NJ, USA) and received in lyophilized format. […] This suspension was measured and adjusted to achieve an optical density of 0.08-0.1, equivalent to a 0.5 McFarland standard (1-2×10^8 cfu/mL). […]

porcine red blood cells = assay: Hemolysis assay (HC50), Example 2; details: up to 128 μg/mL
Method: Peptides were evaluated for toxicity using three independent hemolysis experiments. Whole blood from healthy donor pigs, supplemented with Na Citrate, was purchased from Lampire Biological Laboratories (Pipersville, PA, USA). Red blood cells (RBCs) were washed and isolated by three centrifugation cycles using Roswell Park Memorial Institute medium (RPMI; Thermo-Fisher Scientific) to create a 1% (v/v) RBC solution. […] Following a minimum 30 min incubation at 37° C., plates were centrifuged and % volume from each supernatant was transferred to a new 96-well plate. The absorbance of these wells was measured at 415 nm. To quantify hemolytic activity and determine the AMP concentration that lyses 50% of the RBCs (HC50), absorbance reading from wells containing RBCs treated with 11 μL of a 2% TritonX-100 detergent solution (TX-100) or RPMI (AMP solvent-only) were used to define 100% and 0% hemolysis, respectively. All centrifugation steps were performed at 500× g for five minutes in an Allegra-6R centrifuge (Beckman Coulter, Brea, CA, USA).

Row | Compound | MIC against E. coli (E. coli ATCC 25922) [µg/mL] | MIC (ug/mL) E. coli (E. coli ATCC 25922) [µg/mL] | MIC (ug/mL) S. Enteritidis [1] [µg/mL] | MIC (ug/mL) S. aureus (S. aureus ATCC 29213) [µg/mL] | viability at 4 h, 128 µg/mL [2] [%] | cytotoxicity (HEK293 cells) | MIC* (μg/mL) S. aureus [3] [µg/mL] | hemolytic activity (porcine red blood cells) | MIC against Salmonella Enteritidis [1] [µg/mL]
1 | CC[C@H](C)[C@H](NC(=O)[C@@H](N)CCCCN)C(=O)N[C@@H](CCCCN)C(=O)N[C@H](C(=O)N1CCC[C@H]1C(=O)N[C@@H](Cc1c[nH]c2ccccc12)C(=O)NCC(=O)N[C@@H](CCCCN)C(=O)N[C@H](C(=O)N[C@@H](CCCCN)C(=O)N[C@@H](CC(=O)O)C(=O)N[C@@H](Cc1ccccc1)C(=O)N[C@@H](CC(C)C)C(=O)N[C@H](C(=O)NCC(=O)NCC(=O)N[C@@H](CCSC)C(=O)N[C@@H](CCCCN)C(=O)N[C@@H](C)C(=O)N[C@H](C(=O)NCC(=O)N[C@@H](CCCCN)C(=O)N[C@@H](CCCCN)C(=O)O)C(C)C)C(C)C)C(C)C)[C@@H](C)CC [TeBi1] (H-KIKIPWGKVKDFLVGGMKAVGKK-OH) | 1 to 2 | 1 to 2 | 4 to 8 | 4 to 8 | 40 | low or no cytotoxicity at lower concentrations; also recorded: high levels of cytotoxicity at concentrations higher than their MICs | 2 to 8 | not hemolytic at the concentrations tested | –
2 | CC(C)C[C@H](NC(=O)[C@H](CCCCN)NC(=O)[C@H](CCC(=O)O)NC(=O)[C@H](CC(C)C)NC(=O)[C@H](CCCNC(=N)N)NC(=O)[C@@H](NC(=O)[C@H](Cc1ccc(O)cc1)NC(=O)[C@H](CC(N)=O)NC(=O)[C@H](CCCCN)NC(=O)[C@H](CCCCN)NC(=O)[C@H](CC(N)=O)NC(=O)[C@@H](NC(=O)[C@H](CC(C)C)NC(=O)[C@H](CCCCN)NC(=O)[C@H](CCCCN)NC(=O)[C@@H](NC(=O)[C@H](CO)NC(=O)[C@H](CCCCN)NC(=O)[C@H](CO)NC(=O)[C@H](CC(C)C)NC(=O)[C@H](Cc1c[nH]c2ccccc12)NC(=O)[C@@H](N)CO)C(C)C)C(C)C)[C@@H](C)O)C(=O)N[C@@H](C)C(=O)N[C@@H](CCCCN)C(=O)N[C@@H](CCCCN)C(=O)N[C@@H](CCCCN)C(=O)N[C@@H](CC(C)C)C(=O)N[C@@H](Cc1ccccc1)C(=O)N[C@@H](CC(N)=O)C(=O)N[C@@H](CCC(=O)O)C(=O)O [TeRu4] (H-SWLSKSVKKLVNKKNYTRLEKLAKKKLFNE-OH) | – | 1 (≈ 0.276 µM) | 2 to 4 | > 128 | – | not to be toxic to HEK293 cells at any of the concentrations tested; also recorded: not toxic against either porcine erythrocytes or HEK293 cells | >128 | not hemolytic at the concentrations tested; also recorded: not toxic against either porcine erythrocytes or HEK293 cells | 2 to 4

— patent US20260242416A1, “ANTIMICROBIAL PEPTIDES” (priority 2023, published 2026)
